Data from patent publication US20130096099A1, “METHOD OF TREATING BRAIN CANCER” (NIIKI PHARMA INC., priority 2010, published 2013).
“Also recorded” adds a separate entry of the source.

Experiments:
[1] = tested on: U87 cell line; conditions: Bowles et al., J. Neurosurg., 73:248-253 (1990); cited from earlier work
[2] = tested on: glioma cell line U87; test: MTT assay in 3-dimentional tumor model (HuBiogel) derived from glioma cell line U87; type: cell-based
Description: (§1) The compound sodium trans-[tetrachlorobis(1H-indazole)ruthenate(III)] was tested in a 3-dimentional tumor model derived from glioma cell line U87. Specifically, cells were trypsinized, washed, counted by trypan blue exclusion. Tumor beads were then prepared by mixing 20,000 cells/10 μl of HuBiogel (4 mg/mL) (See U.S. patent application Ser. No. 10/546,506, which is incorporated herein by reference). The 3-D tumor beads were cultivated for 72 hours in multi-well plates with complete media (10% FBS) in a 37° C. incubator +5% CO2. Mini-tumors were treated with various concentrations of the test compound sodium trans-[tetrachlorobis(1H-indazole)ruthenate(III)] in media (final 0.2-0.3% DMSO) or control (DMSO). Repeated drug treatment was done by removing the culture media and replacing with fresh media with drug compound or DMSO. On Day 3, MTT assay and live-cell staining with Calcein AM were performed (5 beads/assay set).
(§2) Statistical analysis of data sets (Average, T-test, GI-50) was performed using MS-Excel program. […] See e.g., Bowles et al., J. Neurosurg., 73:248-253 (1990).

[3] = tested on: glioma cell line U87; test: Live-cell staining with Calcein AM / image analysis in 3-D HuBiogel tumor beads; type: cell-based; conditions: 3-D HuBiogel tumor beads from U87, Calcein AM, Day 3
Description: as §1, §2

| Compound | resistance of U87 cell line to drug [1] | tumor proliferation activity / growth inhibition (MTT assay) ([2]; 3-D HuBiogel tumor beads from U87, Day 3, FIG. 1) | GI50 ([2]; 3-D HuBiogel tumor beads from U87, MTT assay on Day 3, read-out: average GI-50 (the drug concentration required for growth inhibition at 50%)) [µM] | tumor killing in live-cell staining/image analysis [3] |
| --- | --- | --- | --- | --- |
| O=NN(CCCl)C(=O)NCCCl [BCNU, bis-chloronitrosourea] | relatively resistant |  |  |  |
| [Cl][Ru-]([Cl])([Cl])[Cl].[Na+].c1ccc2[nH]ncc2c1.c1ccc2[nH]ncc2c1 [sodium trans-[tetrachlorobis(1H-indazole)ruthenate(III)]] |  | dose-dependent growth inhibition; also recorded: significantly inhibited tumor proliferation activity | 95 | dose-dependent tumor killing effective |
